Test system: Superior potatoes
Assay: Potato field trial 2011: emergence, flowering, vigor, biomass
Assay type: in vivo
Conditions: for Crop Vigor (1-5 Scale): 3=same as untreated check, 5=visually superior; for Plant Biomass: 117 DAP, above ground
Method: Seed treatments included an Untreated Control, NPG applied as a seed treatment, and NPG applied as a seed treatment followed by two foliar applications. Aqueous solutions of NPG were applied at a 10^−7 M concentration to seed pieces using a spray nozzle and left to soak on a plastic sheet for 20 min.
Foliar NPG applications were performed 36 and 45 days after planting. Plants were sprayed using a four-nozzle hollow-cone boom containing ceramic disks and CO2 propellant at a speed of 4.5 km/h and 40 psi. The 36 day application utilized a 2.0 L mix size and spray rate of 200 L/ha water volume. The 45 day application utilized a 3.0 L mix size and spray rate of 300 L/ha water volume. Seeds pieces designated for use as the Untreated Control also received the fungicide maintenance treatment.
The seed pieces were beginning to sprout when planted on June 8th in a loam composed of 34% sand, 48% silt and 18% clay and 2.9% organic matter.
Potatoes were planted at a rate of 25,000 seed pieces/ha to a depth of 20 cm and hilled using a tractor mounted potato hiller. Weeds were controlled using 3 L/ha of 40.6 wt % linuron. Insects were controlled using 250 ml/ha 18.4 wt % chlorantraniliprole and 80 g/ha 70 wt % acetamiprid insecticides. Disease was controlled using a tank mix of 1.6 kg/ha 75 wt % mancozeb M and 225 g/ha 60 wt % cymoxanil fungicides. Before harvest, plants were sprayed twice (seven days apart) with 39.5 wt % diquat dibromide herbicide at a rate of 2 L/ha. All of the products are industry standards and representative of what is used in commercial production.
The trial was conducted using a randomized complete block design with a plot size of 2 m by 8 m with a 100 cm row spacing, 30 cm plant spacing and four replications. Due to wet weather, the soil was damp and cloddy during the planting and hilling process.
Treatments were compared on a “Vigor Scale” of 1 to 5 as follows:
Potato Plant Biomass was determined at 117 DAP by harvesting five plants above ground level from each plot (Table 7).

[1] = 10^−7M seed treatment + Foliar, 20 DAP
[2] = 10^−7M seed treatment + Foliar, 28 DAP
[3] = 10^−7M seed treatment + Foliar, 40 DAP

## CCCCCCC=CCCCCCCCC(=O)NC1C(OC)OC(CO)C(O)C1O [NPG, Methyl 2-deoxy-2-N-(hexadece-9,10-cis-eneoyl)-β-D-glucopyranoside]
[1]
  Potato Emergence: 36a %
  Crop Vigor (1-5 Scale): 4.6b
[2]
  Potato Emergence: 38a %
  Crop Vigor (1-5 Scale): 3.9a
[3]
  Potato Flowering: 22b %
  Crop Vigor (1-5 Scale): 3.6a
10^−7M seed treatment + Foliar, 49 DAP
  Crop Vigor (1-5 Scale): 4.1c
10^−7M seed treatment + Foliar
  Plant Biomass: 2.56a kg/5 Plants
10^−7M seed treatment, 20 DAP
  Potato Emergence: 30a %
  Crop Vigor (1-5 Scale): 2.9a
10^−7M seed treatment, 28 DAP
  Potato Emergence: 39a %
  Crop Vigor (1-5 Scale): 2.9a
10^−7M seed treatment, 40 DAP
  Potato Flowering: 0.0a %
  Crop Vigor (1-5 Scale): 3.1a
10^−7M seed treatment, 49 DAP
  Crop Vigor (1-5 Scale): 3.5b
10^−7M seed treatment
  Plant Biomass: 2.35a kg/5 Plants

Reference: patent US20150305333A1, “USE OF GLUCOSAMINE AMIDES AS PLANT GROWTH AND YIELD ENHANCERS” (PIONEER HI-BRED INTERNATIONAL, INC., priority 2012, published 2015)
